# Measurements: patent US10487093B2, “Heterocyclic compounds, in particular 2-oxo-4,4,5,5,6,6,7,7-octahydrobenzoxazole derivatives, and their use as antibacterial compounds” (priority 2016, dated 2019)
# Where two headings read alike, the source gives them in different places.
# Key:
# Format in all cases: cell-based
# [1] = tested on: strains of Prevotella bivia; assay: MIC against anaerobes, agar dilution (CLSI), clinical isolates
# [2] = tested on: strains of Parvimonas micra; assay: as above
# [3] = tested on: Staphylococcus aureus ATCC 29213; assay: MIC, broth microdilution (CLSI) versus planktonic bacteria; conditions: ATCC29213; Staphylococcus aureus ATCC 29213; 16-20 h; mode of three independent experiments; read-out: MIC, Sa ATCC 29213
# [4] = tested on: strains of Propionibacterium acnes; assay: MIC against anaerobes, agar dilution (CLSI), clinical isolates; conditions: Cutibacterium acnes
# [5] = tested on: strains of Finegoldia magna; assay: as above; conditions: Finegoldia magna, read-out: MIC
# [6] = tested on: strains of Prevotella melaninogenica; assay: as above
# [7] = tested on: strains of Bacteroides thetaiotaomicron; assay: microbe, parasite or virus in culture
# [8] = tested on: Bacteroides thetaiotaomicron ATCC 29741; assay: microbe, parasite or virus in culture; conditions: ATCC29741, agar dilution, Brucella blood agar, 35° C., 48 h, anaerobic conditions, read-out: MIC, B. thetaiotaomicron ATCC
# [9] = tested on: strains of Peptoniphilus harei; assay: MIC against anaerobes, agar dilution (CLSI), clinical isolates; conditions: Peptoniphilus harei, read-out: MIC
# [10] = tested on: strains of Bacteroides fragilis; assay: as above
# [11] = tested on: Streptococcus pneumoniae ATCC 49619; assay: MIC, broth microdilution (CLSI) versus planktonic bacteria; conditions: ATCC49619; Streptococcus pneumoniae ATCC 49619; 16-20 h; mode of three independent experiments; read-out: MIC, Sp ATCC 49619
# [12] = tested on: Bacteroides fragilis ATCC 25285; assay: MIC against anaerobes, agar dilution (CLSI), reference strain; conditions: ATCC25285, agar dilution, Brucella blood agar, 35° C., 48 h, anaerobic conditions, read-out: MIC, B. fragilis ATCC 25285
# [13] = tested on: strains of Peptostreptococcus anaerobius; assay: MIC against anaerobes, agar dilution (CLSI), clinical isolates
# [14] = tested on: Clostridium difficile ATCC 700057; assay: MIC against anaerobes, agar dilution (CLSI), reference strain; conditions: Clostridioides difficile, ATCC700057, 48 h, read-out: MIC, C. difficile ATCC 700057
# [15] = tested on: strains of Clostridium perfringens; assay: microbe, parasite or virus in culture
smiles,measurement,setting,value
"Cc1ccc2ncc(=O)n(CCN[C@H]3CC[C@H]4[C@@H](C3)OC(=O)N4c3ccc4c(n3)NC(=O)CO4)c2c1 [Compound 27, 1-(2-{[(3aS,6S,7aR)-2-oxo-3-{3-oxo-2H,3H,4H-pyrido[3,2-b][1,4]oxazin-6-yl}-octahydro-1,3-benzoxazol-6-yl]amino}ethyl)-7-methyl-1,2-dihydroquinoxalin-2-one]",MIC,[1]; Prevotella bivia strain 1,< 1 µg/mL
same,MIC,[1]; Prevotella bivia strain 2,< 1 µg/mL
same,MIC,[1]; Prevotella bivia strain 3,1 to 4 µg/mL
same,MIC,[1]; Prevotella bivia strain 4,1 to 4 µg/mL
same,MIC,[1]; Prevotella bivia strain 5,< 1 µg/mL
same,MIC,[1]; Prevotella bivia strain 6,1 to 4 µg/mL
same,MIC,[1]; Prevotella bivia strain 7,1 to 4 µg/mL
same,MIC,[1]; Prevotella bivia strain 8,< 1 µg/mL
same,MIC,[1]; Prevotella bivia strain 9,< 1 µg/mL
same,MIC,[1]; Prevotella bivia strain 10,< 1 µg/mL
same,MIC,[2]; Parvimonas micra strain 1,> 64 µg/mL
same,MIC,[2]; Parvimonas micra strain 2,16 to 64 µg/mL
same,MIC,[2]; Parvimonas micra strain 3,> 64 µg/mL
same,MIC,[2]; Parvimonas micra strain 4,> 64 µg/mL
same,MIC,[2]; Parvimonas micra strain 5,> 64 µg/mL
same,MIC,[2]; Parvimonas micra strain 6,1 to 4 µg/mL
same,MIC,[2]; Parvimonas micra strain 7,16 to 64 µg/mL
same,MIC,[2]; Parvimonas micra strain 8,16 to 64 µg/mL
same,MIC,[2]; Parvimonas micra strain 9,16 to 64 µg/mL
same,MIC,[2]; Parvimonas micra strain 10,16 to 64 µg/mL
same,MIC,[2]; Parvimonas micra strain 11,16 to 64 µg/mL
same,MIC,[2]; Parvimonas micra strain 12,16 to 64 µg/mL
same,MIC,[3],< 1 µg/mL
same,MIC,[4]; Propionibacterium acnes strain 1,1 to 4 µg/mL
same,MIC,[4]; Propionibacterium acnes strain 2,< 1 µg/mL
same,MIC,[4]; Propionibacterium acnes strain 3,< 1 µg/mL
same,MIC,[4]; Propionibacterium acnes strain 4,< 1 µg/mL
same,MIC,[4]; Propionibacterium acnes strain 5,1 to 4 µg/mL
same,MIC,[4]; Propionibacterium acnes strain 6,1 to 4 µg/mL
same,MIC,[4]; Propionibacterium acnes strain 7,1 to 4 µg/mL
same,MIC,[4]; Propionibacterium acnes strain 8,1 to 4 µg/mL
same,MIC,[4]; Propionibacterium acnes strain 9,1 to 4 µg/mL
same,MIC,[4]; Propionibacterium acnes strain 10,1 to 4 µg/mL
same,MIC,[4]; Propionibacterium acnes strain 11,< 1 µg/mL
same,MIC,[4]; Propionibacterium acnes strain 12,1 to 4 µg/mL
same,MIC,[5]; Finegoldia magna strain 1,1 to 4 µg/mL
same,MIC,[5]; Finegoldia magna strain 2,16 to 64 µg/mL
same,MIC,[5]; Finegoldia magna strain 3,1 to 4 µg/mL
same,MIC,[5]; Finegoldia magna strain 4,16 to 64 µg/mL
same,MIC,[5]; Finegoldia magna strain 5,16 to 64 µg/mL
same,MIC,[5]; Finegoldia magna strain 6,16 to 64 µg/mL
same,MIC,[5]; Finegoldia magna strain 7,> 64 µg/mL
same,MIC,[5]; Finegoldia magna strain 8,1 to 4 µg/mL
same,MIC,[5]; Finegoldia magna strain 9,> 64 µg/mL
same,MIC,[5]; Finegoldia magna strain 10,4 to 16 µg/mL
same,MIC,[5]; Finegoldia magna strain 11,16 to 64 µg/mL
same,MIC,[5]; Finegoldia magna strain 12,16 to 64 µg/mL
same,MIC,[6]; Prevotella melaninogenica strain 1,1 to 4 µg/mL
same,MIC,[6]; Prevotella melaninogenica strain 2,< 1 µg/mL
same,MIC,[6]; Prevotella melaninogenica strain 3,< 1 µg/mL
same,MIC,[6]; Prevotella melaninogenica strain 4,< 1 µg/mL
same,MIC,[6]; Prevotella melaninogenica strain 5,< 1 µg/mL
same,MIC,[6]; Prevotella melaninogenica strain 6,< 1 µg/mL
same,MIC,[6]; Prevotella melaninogenica strain 7,< 1 µg/mL
same,MIC,[6]; Prevotella melaninogenica strain 8,< 1 µg/mL
same,MIC,[6]; Prevotella melaninogenica strain 9,< 1 µg/mL
same,MIC,[6]; Prevotella melaninogenica strain 10,1 to 4 µg/mL
same,MIC,[6]; Prevotella melaninogenica strain 11,< 1 µg/mL
same,MIC,"[7]; Bacteroides thetaiotaomicron strain 1, read-out: MIC",4 to 16 µg/mL
same,MIC,"[7]; Bacteroides thetaiotaomicron strain 2, read-out: MIC",1 to 4 µg/mL
same,MIC,"[7]; Bacteroides thetaiotaomicron strain 3, read-out: MIC",4 to 16 µg/mL
same,MIC,"[7]; Bacteroides thetaiotaomicron strain 4, read-out: MIC",4 to 16 µg/mL
same,MIC,"[7]; Bacteroides thetaiotaomicron strain 5, read-out: MIC",1 to 4 µg/mL
same,MIC,"[7]; Bacteroides thetaiotaomicron strain 6, read-out: MIC",4 to 16 µg/mL
same,MIC,"[7]; Bacteroides thetaiotaomicron strain 7, read-out: MIC",4 to 16 µg/mL
same,MIC,"[7]; Bacteroides thetaiotaomicron strain 8, read-out: MIC",1 to 4 µg/mL
same,MIC,"[7]; Bacteroides thetaiotaomicron strain 9, read-out: MIC",< 1 µg/mL
same,MIC,"[7]; Bacteroides thetaiotaomicron strain 10, read-out: MIC",1 to 4 µg/mL
same,MIC,"[7]; Bacteroides thetaiotaomicron strain 11, read-out: MIC",4 to 16 µg/mL
same,MIC,[8],1 to 4 µg/mL
same,MIC,[9]; Peptoniphilus harei strain 1,< 1 µg/mL
same,MIC,[9]; Peptoniphilus harei strain 2,< 1 µg/mL
same,MIC,[9]; Peptoniphilus harei strain 3,< 1 µg/mL
same,MIC,[9]; Peptoniphilus harei strain 4,< 1 µg/mL
same,MIC,[9]; Peptoniphilus harei strain 5,< 1 µg/mL
same,MIC,[9]; Peptoniphilus harei strain 6,< 1 µg/mL
same,MIC,[9]; Peptoniphilus harei strain 7,< 1 µg/mL
same,MIC,[9]; Peptoniphilus harei strain 8,< 1 µg/mL
same,MIC,[9]; Peptoniphilus harei strain 9,< 1 µg/mL
same,MIC,[9]; Peptoniphilus harei strain 10,< 1 µg/mL
same,MIC,[9]; Peptoniphilus harei strain 11,< 1 µg/mL
same,MIC,[9]; Peptoniphilus harei strain 12,< 1 µg/mL
same,MIC,[10]; Bacteroides fragilis strain 1,16 to 64 µg/mL
same,MIC,[10]; Bacteroides fragilis strain 2,1 to 4 µg/mL
same,MIC,[10]; Bacteroides fragilis strain 3,1 to 4 µg/mL
same,MIC,[10]; Bacteroides fragilis strain 4,1 to 4 µg/mL
same,MIC,[10]; Bacteroides fragilis strain 5,1 to 4 µg/mL
same,MIC,[10]; Bacteroides fragilis strain 6,1 to 4 µg/mL
same,MIC,[10]; Bacteroides fragilis strain 7,4 to 16 µg/mL
same,MIC,[10]; Bacteroides fragilis strain 8,1 to 4 µg/mL
same,MIC,[10]; Bacteroides fragilis strain 9,1 to 4 µg/mL
same,MIC,[10]; Bacteroides fragilis strain 10,1 to 4 µg/mL
same,MIC,[10]; Bacteroides fragilis strain 11,1 to 4 µg/mL
same,MIC,[10]; Bacteroides fragilis strain 12,1 to 4 µg/mL
same,MIC,[11],< 1 µg/mL
same,MIC,[12],4 to 16 µg/mL
same,MIC,[13]; Peptostreptococcus anaerobius strain 1,< 1 µg/mL
same,MIC,[13]; Peptostreptococcus anaerobius strain 2,< 1 µg/mL
same,MIC,[13]; Peptostreptococcus anaerobius strain 3,< 1 µg/mL
same,MIC,[13]; Peptostreptococcus anaerobius strain 4,4 to 16 µg/mL
same,MIC,[13]; Peptostreptococcus anaerobius strain 5,< 1 µg/mL
same,MIC,[13]; Peptostreptococcus anaerobius strain 6,< 1 µg/mL
same,MIC,[13]; Peptostreptococcus anaerobius strain 7,< 1 µg/mL
same,MIC,[13]; Peptostreptococcus anaerobius strain 8,< 1 µg/mL
same,MIC,[13]; Peptostreptococcus anaerobius strain 9,< 1 µg/mL
same,MIC,[13]; Peptostreptococcus anaerobius strain 10,< 1 µg/mL
same,MIC,[14],1 to 4 µg/mL
same,MIC,[15]; Clostridium perfringens strain 1,< 1 µg/mL
same,MIC,[15]; Clostridium perfringens strain 2,< 1 µg/mL
same,MIC,[15]; Clostridium perfringens strain 3,< 1 µg/mL
same,MIC,[15]; Clostridium perfringens strain 4,< 1 µg/mL
same,MIC,[15]; Clostridium perfringens strain 5,< 1 µg/mL
same,MIC,[15]; Clostridium perfringens strain 6,< 1 µg/mL
same,MIC,[15]; Clostridium perfringens strain 7,< 1 µg/mL
same,MIC,[15]; Clostridium perfringens strain 8,1 to 4 µg/mL
same,MIC,[15]; Clostridium perfringens strain 9,< 1 µg/mL
same,MIC,[15]; Clostridium perfringens strain 10,< 1 µg/mL
same,MIC,[15]; Clostridium perfringens strain 11,< 1 µg/mL
